Laboratory results taken from article PMC10247784, “Physiological activation of human and mouse bitter taste receptors by bile acids” (Communications Biology, 2023).

Target: T1, mouse Tas2r108 (Mus musculus, UniProt Q9JKT3)
T1 construct: expressed in transfected cells; host or cells: HEK293T-Gα16gust44
T1 sequence (Q9JKT3 1-297): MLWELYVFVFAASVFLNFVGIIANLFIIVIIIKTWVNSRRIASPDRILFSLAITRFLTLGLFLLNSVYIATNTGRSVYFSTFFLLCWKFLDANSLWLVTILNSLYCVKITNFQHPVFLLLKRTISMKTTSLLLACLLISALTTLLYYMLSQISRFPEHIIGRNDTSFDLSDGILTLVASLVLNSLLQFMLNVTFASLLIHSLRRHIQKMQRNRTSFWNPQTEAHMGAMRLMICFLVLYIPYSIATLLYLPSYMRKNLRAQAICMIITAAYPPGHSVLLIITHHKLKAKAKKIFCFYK
Experiment: Calcium imaging assay (FLIPR), HEK293T-Gα16gust44 cells transfected with mouse Tas2r108
Assay type: cell-based
Protocol: This set of bile acids was chosen because of their commercial availability in high purities, their diversity within the class of bile acids and their previous detection and quantitation in human blood. Stock solutions were prepared in DMSO.
As basal growth medium for the HEK293T-Gα16gust44 cell line[17],[59] served Dulbecco’s modified eagle medium (DMEM) (Thermo Fisher Scientific, Darmstadt, Germany) supplemented with 10 % fetal bovine serum (Sigma-Aldrich, Steinheim, Germany), 2 mM L-glutamine (Sigma-Aldrich, Steinheim, Germany), 100 units/ml penicillin (Sigma Aldrich, Steinheim, Germany) and 100 µg/ml streptomycin (Sigma Aldrich, Steinheim, Germany). Growth conditions were 37 °C, 5 % CO2 and saturated air-humidity[60].
HEK293T-Gα16gust44 cells were seeded on poly-D-lysine (10 µg/ml) coated 96-well plates to reach a confluence of 40-60 % the next day. For transient transfection 150 ng of plasmid DNA containing the receptor of interest and 0.3 µl lipofectamine 2000 (Thermo Fisher Scientific, Darmstadt, Germany) per well were used and transfection took place according to the manual of lipofectamine 2000. […] The empty vector DNA (mock) was transfected as negative control[14],[41].
Cells were loaded using the calcium-sensitive fluorescent dye Fluo-4-AM (Abcam, Cambridge, Great Britain) in the presence of 2.5 mM probenecid (Sigma-Aldrich, Steinheim, Germany) the day after transfection[13],[41]. 1 h after loading, cells were washed with C1 buffer using a BioTek Cell Washer, incubated in the dark for half an hour and washed again. For automated agonist application and measurement of fluorescence changes, a FLIPR^TETRA device (Molecular Devices, San José, United States) was used. Viability of cells was tested by application of 100 nM Somatostatin 14 (Bachem, Bubendorf, Switzerland)[42].
Measured data were negative control corrected by subtracting the signal of the mock-transfected cells and exported to Microsoft Excel using the FLIPR software ScreenWorks 4.2. In Microsoft Excel software, standardization of maximum fluorescence intensities to the basal fluorescence and normalization to the buffer-only control was done to calculate the relative fluorescence changes (ΔF/F).
Initial screening experiments performed in duplicate wells were confirmed by at least one replication and representative traces were selected for display. All dose-response relationships were determined by three independent experiments (biological replicates) performed in duplicates (technical replicates). Threshold concentrations, defined as lowest substance concentrations leading to statistically significant elevated fluorescence changes in receptor-transfected cells compared with empty vector-transfected cells, were determined using SigmaPlot with Student’s t-test to evaluate statistical significance (p < 0.01).

C[C@H](CCC(=O)O)[C@H]1CC[C@H]2[C@@H]3[C@H](O)C[C@@H]4C[C@H](O)CC[C@]4(C)[C@H]3C[C@H](O)[C@]12C [Cholic Acid, cholic acid]
RLU (Time 0 s): 0 RLU | RLU (Time 2 s): 6.931 RLU | RLU (Time 4 s): 8.7879 RLU | RLU (Time 6 s): 7.879 RLU | RLU (Time 8 s): 1.863 RLU | RLU (Time 12 s): 5.906 RLU | RLU (Time 14 s): 3.861 RLU | RLU (Time 16 s): 1.935 RLU | RLU (Time 18 s): -12.1137 RLU | RLU (Time 137.562 s): 234.064 RLU | RLU (Time 143.562 s): 197.377 RLU | RLU (Time 149.562 s): 197.423 RLU | RLU (Time 155.562 s): 210.935 RLU | RLU (Time 161.562 s): 218.751 RLU | RLU (Time 167.562 s): 184.375 RLU | RLU (Time 173.562 s): 173.738 RLU | RLU (Time 179.562 s): 175.807 RLU | RLU (Time 185.562 s): 185.91 RLU | RLU (Time 191.562 s): 162.947 RLU | RLU (Time 197.562 s): 167.018 RLU | RLU (Time 203.562 s): 164.056 RLU | RLU (Time 209.562 s): 161.279 RLU | RLU (Time 215.562 s): 154.776 RLU | RLU (Time 221.562 s): 158.451 RLU | RLU (Time 227.562 s): 139.492 RLU | RLU (Time 233.562 s): 152.204 RLU | RLU (Time 239.562 s): 73.7327 RLU | RLU (Time 245.562 s): 142.097 RLU | RLU (Time 293.562 s): 160.558 RLU | RLU (Time 299.562 s): 159.088 RLU | RLU (Time 305.562 s): 175.817 RLU | RLU (Time 311.562 s): 159.088 RLU | RLU (Time 317.562 s): 162.782 RLU | RLU (Time 323.562 s): 182.257 RLU | RLU (Time 329.562 s): 162.985 RLU | RLU (Time 335.562 s): 195.196 RLU | RLU (Time 341.562 s): 184.414 RLU | RLU (Time 347.562 s): 175.395 RLU | RLU (Time 353.562 s): 161.041 RLU | RLU (Time 359.562 s): 176.226 RLU | Activation threshold concentration Tas2r108 (p < 0.01 vs empty vector): 100 µM | RLU (time 18.797 s): 17.792 RLU | RLU (time 20.797 s): -23.002 RLU | RLU (time 22.797 s): -57.7927 RLU | RLU (time 24.797 s): -48.9168 RLU | RLU (time 26.797 s): -17.0044 RLU | RLU (time 28.797 s): 22.9392 RLU | RLU (time 30.797 s): 32.9758 RLU | RLU (time 32.797 s): 53.0645 RLU | RLU (time 34.797 s): 83.8222 RLU | RLU (time 36.797 s): 93.8063 RLU | RLU (time 38.797 s): 138.967 RLU | RLU (time 40.797 s): 140.665 RLU | RLU (time 42.797 s): 165.846 RLU | RLU (time 44.797 s): 192.868 RLU | RLU (time 46.797 s): 190.046 RLU | RLU (time 48.797 s): 199.412 RLU | RLU (time 50.797 s): 213.089 RLU | RLU (time 52.797 s): 215.082 RLU | RLU (time 54.797 s): 250.612 RLU | RLU (time 56.797 s): 250.502 RLU | RLU (time 58.797 s): 257.511 RLU | RLU (time 60.797 s): 256.774 RLU | RLU (time 62.797 s): 238.682 RLU | RLU (time 64.797 s): 249.009 RLU | RLU (time 66.797 s): 305.929 RLU | RLU (time 68.797 s): 280.306 RLU | RLU (time 70.797 s): 276.637 RLU | RLU (time 72.797 s): 284.565 RLU | RLU (time 74.797 s): 263.421 RLU | RLU (time 76.797 s): 265 RLU | RLU (time 78.797 s): 262.578 RLU | RLU (time 80.797 s): 288.384 RLU | RLU (time 82.797 s): 280.368 RLU | RLU (time 84.797 s): 274.722 RLU | RLU (time 86.797 s): 270.305 RLU | RLU (time 88.797 s): 275.266 RLU | RLU (time 90.797 s): 279.283 RLU | RLU (time 92.797 s): 261.98 RLU | RLU (time 94.797 s): 257.248 RLU | RLU (time 96.797 s): 285.43 RLU | RLU (time 98.797 s): 259.515 RLU | RLU (time 100.797 s): 270.732 RLU | RLU (time 102.797 s): 264.325 RLU | RLU (time 104.797 s): 245.741 RLU | RLU (time 106.797 s): 235.309 RLU | RLU (time 108.797 s): 255.707 RLU | RLU (time 110.797 s): 240.509 RLU | RLU (time 112.797 s): 233.706 RLU | RLU (time 114.797 s): 230.518 RLU | RLU (time 116.797 s): 242.495 RLU | RLU (time 118.797 s): 239.456 RLU | RLU (time 120.797 s): 255.452 RLU | RLU (time 122.797 s): 242.932 RLU | RLU (time 124.797 s): 218.082 RLU | RLU (time 126.797 s): 235.026 RLU | RLU (time 128.797 s): 232.943 RLU | RLU (time 130.797 s): 235.505 RLU | RLU (time 132.797 s): 229.818 RLU | RLU (time 134.797 s): 212.202 RLU | RLU (time 136.797 s): 197.953 RLU
